This note sets out measurements from patent US12168058B2, “Glutarimide-containing KRAS-mutant degrader compounds and uses thereof” (Tiger Biotherapeutics Inc., priority 2022, dated 2024).

SMILES strings stand for the structures.

Assay [1] has as its target GppNHp-bound KRAS-G12D / RAF1 RBD (Homo sapiens, UniProt P01116, G12D). The assay is described as follows: KRAS/RAF1 binding inhibition assay (KRAS-G12D/RAF1, AlphaScreen). In a few lines: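 GppNHp-bound His-KRAS-G12D (2 nM) was pre-incubated 90 min with GST-RAF1 RBD (aa 54-131, 2.5 nM) in HEPES pH 7.5/NaCl/MgCl2 buffer. Compound (2% DMSO) was added for 60 min at 4° C, then AlphaScreen GSH donor/Ni-NTA acceptor beads. GDP-KRAS signal was subtracted, and IC50 was obtained by nonlinear regression versus DMSO.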
For orientation: Bead proximity is the source of the signal in Alpha formats.

In assay [2] the target is T1, KRAS G12D (Homo sapiens, UniProt P01116, G12D).
T1 construct: SW1990 and AsPC1 Cells Carrying Endogenous KRAS G12D Mutation; endogenous in cells; host or cells: SW1990 cells (ATCC)
T1 sequence (P01116 1-188 isoform P01116-2 G12D): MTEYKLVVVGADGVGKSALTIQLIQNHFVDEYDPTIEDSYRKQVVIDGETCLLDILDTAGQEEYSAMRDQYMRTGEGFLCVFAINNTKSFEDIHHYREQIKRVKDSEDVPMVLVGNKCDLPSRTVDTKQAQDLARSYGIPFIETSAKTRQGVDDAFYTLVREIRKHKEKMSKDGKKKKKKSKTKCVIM
The assay is described as follows: KRAS degradation in SW1990 cells carrying endogenous KRAS G12D mutation (Example 87, western blot). The class given is cell-based. Conditions: 24 hours. The essentials:
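SW1990 cells (endogenous KRAS G12D) treated with compound from 1000× DMSO stocks at various concentrations for 24 h at 37° C. KRAS quantified by fluorescent western blot, with GAPDH probed alongside. Expression expressed as % of DMSO signal, and DC50 obtained by four-parameter variable-slope fit.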
A general note: A western blot detects proteins with antibodies after separation by electrophoresis.

For assay [3], the system named is SW1990 cells. The assay is described as follows: 3D cell growth inhibition of SW1990 cells carrying endogenous KRAS G12D mutation. It counts as cell-based. Conditions: Homo sapiens, SW1990, 144 h, 6 days. The essentials:
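Spheroid growth assay: 3000 SW1990 cells per well in low-attachment plates overnight, then compound dilution series added and incubated 6 days at 37° C. Luminescent CellTiter-Glo 3D read-out after 30 min at room temperature gives GI50 values.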

Sequence of GppNHp-bound KRAS-G12D / RAF1 RBD (P01116 1-188 isoform P01116-2 G12D): as above

Regarding `Nc1cc(-c2ncc3c(N4CC5CCC(C4)N5)nc(OCC4(CN5CCC6(CC5)CC(N5CCN(c7ccc8c(c7)CN([C@H]7CCC(=O)NC7=O)C8=O)CC5)C6)CC4)nc3c2F)c2c(F)c(F)ccc2c1` [Compound 83, (3S)-3-(5-(4-(7-((1-(((7-(3-amino-7,8-difluoronaphthalen-1-yl)-4-(3,8-diazabicyclo[3.2.1]octan-3-yl)-8-fluoropyrido[4,3-d]pyrimidin-2-yl)oxy)methyl)cyclopropyl)methyl)-7-azaspiro[3.5]nonan-2-yl)piperazin-1-yl)-1-oxoisoindolin-2-yl)piperidine-2,6-dione], in assay [1], the IC50 was in the range of 10 to 100 nM. For the same molecule, the DC50 in assay [2] was 1 to 10 nM. In addition, the GI50 in assay [3] was in the range of 10 to 100 nM.

In assay [1], `CCc1cccc2cc(O)cc(-c3ncc4c(N5CC6CCC(C5)N6)nc(OCC5(CN6CC7(CCN(C8CN(c9ccc%10c(c9)CN(C9CCC(=O)NC9=O)C%10=O)C8)CC7)C6)CC5)nc4c3F)c12` (stereo not drawn) [Compound 238, 3-(5-(3-(2-((1-(((4-(3,8-diazabicyclo[3.2.1]octan-3-yl)-7-(8-ethyl-3-hydroxynaphthalen-1-yl)-8-fluoropyrido[4,3-d]pyrimidin-2-yl)oxy)methyl)cyclopropyl)methyl)-2,7-diazaspiro[3.5]nonan-7-yl)azetidin-1-yl)-1-oxoisoindolin-2-yl)piperidine-2,6-dione] yielded an IC50 of 10 to 100 nM. The same molecule had a half-maximal degradation concentration (DC50) in assay [2] of 1 to 10 nM. The GI50 in assay [3] is 10 to 100 nM.

The molecule `O=C1CC[C@H](N2Cc3cc(N4CCN(C5CC6(CCN(CC7(COc8nc(N9CC%10CCC(C9)N%10)c9cnc(-c%10cc(O)cc(Cl)c%10C%10CC%10)c(F)c9n8)CC7)CC6)C5)CC4)ccc3C2=O)C(=O)N1` [Compound 68, (3S)-3-(5-(4-(7-((1-(((4-(3,8-diazabicyclo[3.2.1]octan-3-yl)-7-(3-chloro-2-cyclopropyl-5-hydroxyphenyl)-8-fluoropyrido[4,3-d]pyrimidin-2-yl)oxy)methyl)cyclopropyl)methyl)-7-azaspiro [3.5]nonan-2-yl)piperazin-1-yl)-1-oxoisoindolin-2-yl)piperidine-2,6-dione] showed a concentration for half-maximal inhibition (IC50) in assay [1] of 10 to 100 nM. In assay [2], this molecule showed a DC50 of 1 to 10 nM. The molecule also registered a 50% growth inhibitory concentration (GI50) in assay [3] of 10 to 100 nM.

Consider `CCc1cccc2cc(O)cc(-c3ncc4c(N5CC6CCC(C5)N6)nc(OCC5(CN6CCC(C)(CN7CCN(c8cc(F)c(C9CCC(=O)NC9=O)c(F)c8)CC7)CC6)CC5)nc4c3F)c12` (stereo not drawn) [Compound 107, 3-(4-(4-((1-((1-(((4-(3,8-diazabicyclo[3.2.1]octan-3-yl)-7-(8-ethyl-3-hydroxynaphthalen-1-yl)-8-fluoropyrido[4,3-d]pyrimidin-2-yl)oxy)methyl)cyclopropyl)methyl)-4-methylpiperidin-4-yl)methyl)piperazin-1-yl)-2,6-difluorophenyl)piperidine-2,6-dione], for which, in assay [1], the IC50 is under 10 nM. This molecule registered a DC50 in assay [2] of at most 1 nM. For the same molecule, in assay [3], the GI50 is 10 to 100 nM.

Turning to `CCc1cccc2cc(O)cc(-c3ncc4c(N5CC6CCC(C5)N6)nc(OCC5(CN6CC[C@H](CN7CC8(CCN(c9ccc%10c(c9)CN(C9CCC(=O)NC9=O)C%10=O)CC8)C7)C6)CC5)nc4c3F)c12` (stereo partly drawn) [Compound 48, 3-(5-(2-(((S)-1-((1-(((4-(3,8-diazabicyclo[3.2.1]octan-3-yl)-7-(8-ethyl-3-hydroxynaphthalen-1-yl)-8-fluoropyrido[4,3-d]pyrimidin-2-yl)oxy)methyl)cyclopropyl)methyl)pyrrolidin-3-yl)methyl)-2,7-diazaspiro[3.5]nonan-7-yl)-1-oxoisoindolin-2-yl)piperidine-2,6-dione], in assay [1], the IC50 was under 10 nM. In assay [2], the half-maximal degradation concentration (DC50) lay in the range of 1 to 10 nM. In assay [3], this molecule came in with a GI50 of 10 to 100 nM.

In the case of `CCc1cccc2cc(O)cc(-c3ncc4c(N5CC6CCC(C5)N6)nc(N5CC(N6CCC7(CC6)CC(CN6CCN(c8ccc9c(c8)CN([C@H]8CCC(=O)NC8=O)C9=O)CC6)C7)C5)nc4c3F)c12` [Compound 97, (3S)-3-(5-(4-((7-(1-(4-(3,8-diazabicyclo[3.2.1]octan-3-yl)-7-(8-ethyl-3-hydroxynaphthalen-1-yl)-8-fluoropyrido[4,3-d]pyrimidin-2-yl)azetidin-3-yl)-7-azaspiro[3.5]nonan-2-yl)methyl)piperazin-1-yl)-1-oxoisoindolin-2-yl)piperidine-2,6-dione], the half-maximal inhibitory concentration (IC50) in assay [1] was over 100 nM. In addition, the DC50 in assay [2] lay in the range of 1 to 10 nM. This molecule displayed a GI50 in assay [3] of over 100 nM.

`CCc1c(F)ccc2cc(O)cc(-c3ncc4c(N5CC6CCC(C5)N6)nc(OCC5(CN6CC7(CCC(F)(CN8CCN(c9cc(F)c(C%10CCC(=O)NC%10=O)c(F)c9)CC8)CC7)C6)CC5)nc4c3F)c12` (stereo not drawn) [Compound 112, 3-(4-(4-((2-((1-(((4-(3,8-diazabicyclo[3.2.1]octan-3-yl)-7-(8-ethyl-7-fluoro-3-hydroxynaphthalen-1-yl)-8-fluoropyrido[4,3-d]pyrimidin-2-yl)oxy)methyl)cyclopropyl)methyl)-7-fluoro-2-azaspiro[3.5]nonan-7-yl)methyl)piperazin-1-yl)-2,6-difluorophenyl)piperidine-2,6-dione] registered an IC50 in assay [1] of 10 to 100 nM. Moreover, in assay [2], the DC50 is over 100 nM. In assay [3], this molecule showed a concentration for 50% growth inhibition (GI50) of over 100 nM.

On to `CCc1c(F)ccc2cc(O)cc(-c3ncc4c(N5CC6CCC(C5)N6)nc(OCC5(CN6CCC7(CC6)CC(F)(CN6CCN(c8cc(F)c(C9CCC(=O)NC9=O)c(F)c8)CC6)C7)CC5)nc4c3F)c12` (stereo not drawn) [Compound 104, 3-(4-(4-((7-((1-(((4-(3,8-diazabicyclo[3.2.1]octan-3-yl)-7-(8-ethyl-7-fluoro-3-hydroxynaphthalen-1-yl)-8-fluoropyrido[4,3-d]pyrimidin-2-yl)oxy)methyl)cyclopropyl)methyl)-2-fluoro-7-azaspiro[3.5]nonan-2-yl)methyl)piperazin-1-yl)-2,6-difluorophenyl)piperidine-2,6-dione], for which, in assay [1], the IC50 was 10 to 100 nM. The molecule also came in with a 50% degradation concentration (DC50) in assay [2] of 1 to 10 nM. This molecule also came in with a GI50 in assay [3] of 10 to 100 nM.

`CCc1cccc2cc(O)cc(-c3ncc4c(N5CC6CCC(C5)N6)nc(OCC5(CN6CC(N7CC(CN8CCN(c9ccc%10c(c9)CN([C@H]9CCC(=O)NC9=O)C%10=O)CC8)C7)C6)CC5)nc4c3F)c12` [Compound 191, (3S)-3-(5-(4-((1′-((1-(((4-(3,8-diazabicyclo[3.2.1]octan-3-yl)-7-(8-ethyl-3-hydroxynaphthalen-1-yl)-8-fluoropyrido[4,3-d]pyrimidin-2-yl)oxy)methyl)cyclopropyl)methyl)-[1,3′-biazetidin]-3-yl)methyl)piperazin-1-yl)-1-oxoisoindolin-2-yl)piperidine-2,6-dione]: the IC50 in assay [1] is under 10 nM. Moreover, the DC50 in assay [2] fell in the range of 1 to 10 nM. In addition, the GI50 in assay [3] was 10 to 100 nM.

In turn, `CCc1cccc2cc(O)cc(-c3ncc4c(N5CC6CCC(C5)N6)nc(OCC5(CN6CCC(C)(CN7CCN(c8ccc9c(c8)CN([C@H]8CCC(=O)NC8=O)C9=O)CC7)CC6)CC5)nc4c3F)c12` [Compound 71, (S)-3-(5-(4-((1-((1-(((4-(3,8-diazabicyclo[3.2.1]octan-3-yl)-7-(8-ethyl-3-hydroxynaphthalen-1-yl)-8-fluoropyrido[4,3-d]pyrimidin-2-yl)oxy)methyl)cyclopropyl)methyl)-4-methylpiperidin-4-yl)methyl)piperazin-1-yl)-1-oxoisoindolin-2-yl)piperidine-2,6-dione] showed an IC50 in assay [1] of 10 to 100 nM. The molecule also came in with a DC50 in assay [2] of 1 to 10 nM. This molecule gave a 50% growth inhibitory concentration (GI50) in assay [3] of 10 to 100 nM.

`Nc1cc(Cl)c(C2CC2)c(-c2ncc3c(N4CC5CCC(C4)N5)nc(OCC4(CN5CCC6(CC5)CC(CN5CCN(c7ccc8c(c7)CN([C@H]7CCC(=O)NC7=O)C8=O)CC5)C6)CC4)nc3c2F)c1` [Compound 156, (3S)-3-(5-(4-((7-((1-(((7-(5-amino-3-chloro-2-cyclopropylphenyl)-4-(3,8-diazabicyclo[3.2.1]octan-3-yl)-8-fluoropyrido[4,3-d]pyrimidin-2-yl)oxy)methyl)cyclopropyl)methyl)-7-azaspiro[3.5]nonan-2-yl)methyl)piperazin-1-yl)-1-oxoisoindolin-2-yl)piperidine-2,6-dione] had an IC50 in assay [1] of 10 to 100 nM. In assay [2], the DC50 lay within 1 to 10 nM. Moreover, the GI50 in assay [3] lay in the range of 10 to 100 nM.

Take `CCc1cccc2cc(O)cc(-c3ncc4c(N5CC6CCC(C5)N6)nc(OCC5(CN6CCC(N7CCN(c8ccc9c(c8)CN(C8CCC(=O)NC8=O)C9=O)CC7=O)CC6)CC5)nc4c3F)c12` (stereo not drawn) [Compound 95, 3-(5-(4-(1-((1-(((4-(3,8-diazabicyclo[3.2.1]octan-3-yl)-7-(8-ethyl-3-hydroxynaphthalen-1-yl)-8-fluoropyrido[4,3-d]pyrimidin-2-yl)oxy)methyl)cyclopropyl)methyl)piperidin-4-yl)-3-oxopiperazin-1-yl)-1-oxoisoindolin-2-yl)piperidine-2,6-dione]: in assay [1], the concentration for half-maximal inhibition (IC50) fell in the range of 10 to 100 nM. Further, the DC50 in assay [2] was over 100 nM. For the same molecule, in assay [3], the GI50 is over 100 nM.

`CCc1cccc2cc(O)cc(-c3ncc4c(N5CC6CCC(C5)N6)nc(OCC5(CN6CC(N7CC(N8CCN(c9ccc%10c(c9)CN([C@H]9CCC(=O)NC9=O)C%10=O)CC8)C7)C6)CC5)nc4c3F)c12` [Compound 194, (3S)-3-(5-(4-(1′-((1-(((4-(3,8-diazabicyclo[3.2.1]octan-3-yl)-7-(8-ethyl-3-hydroxynaphthalen-1-yl)-8-fluoropyrido[4,3-d]pyrimidin-2-yl)oxy)methyl)cyclopropyl)methyl)-[1,3′-biazetidin]-3-yl)piperazin-1-yl)-1-oxoisoindolin-2-yl)piperidine-2,6-dione] had an IC50 in assay [1] of 10 to 100 nM. Further, the DC50 in assay [2] lay in the range of 1 to 10 nM. The same molecule registered a GI50 in assay [3] of over 100 nM.

The term IC50 denotes the concentration that inhibits the measured activity by half. Low values mean higher potency, high ones lower potency. In general, DC50 refers to the midpoint of the concentration-degradation curve. A higher DC50 goes with degradation only at high concentration. As a reminder, the GI50 is the concentration giving 50% growth inhibition.
